Assay results reported in patent publication US11384078B2, “5,6-fused-bicyclic compounds and compositions for the treatment of parasitic diseases” (NOVARTIS AG, priority 2017, dated 2022).
Like-named read-outs stand apart in the source and are kept apart here.

Experiments:
Format in all cases: cell-based
[1] = tested on: Leishmania donovani axenic amastigote; assay: In vitro assay for growth inhibition of Leishmania donovani axenic amastigote (Cell TiterGlo luminescence); settings: Leishmania donovani, L. donovani axenic amastigotes in vitro; read-out: L. donovani amastigotes EC50
Method in brief: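 Axenic L. donovani amastigotes (9600/well) grown at 37 °C, 5% CO2 in supplemented RPMI 1640, pH 5.5, with compound added from DMSO. After two days, viability read by CellTiter-Glo luminescence against DMSO and control-compound wells.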

[2] = tested on: Trypanosoma brucei brucei (Lister 427) strain; assay: Assay for growth inhibition against Trypanosoma brucei brucei (Cell TiterGlo ATP luminescence); settings: T. brucei brucei (Lister 427), read-out: T. Brucei (HAT) EC50
Method in brief: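 T. b. brucei Lister 427 grown in HMI-9 with 10% FBS and 10% serum plus, seeded at 10,000 parasites/mL with 10-point threefold compound dilutions in duplicate, 37 °C for 2 days. Viability read as ATP luminescence 30 min after Cell TiterGlo; IC50 versus untreated controls.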

[3] = tested on: Trypanosoma cruzi amastigotes cultured in 3T3 fibroblast cells; assay: Assay for growth inhibition of kinetoplastid parasite Trypanosoma cruzi (beta-galactosidase Tulahuen strain, CPRG readout); settings: Trypanosoma cruzi, Fibroblast, T. cruzi amastigotes in 3T3 fibroblast cells; read-out: Buckner infectious T. cruzi EC50
Method in brief: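 3T3 fibroblasts (1,000 cells/well) plated overnight, treated with compound in DMSO, then infected with 10,000 Lac-Z-expressing Tulahuen trypomastigotes. After 6 days, 0.6 mM CPRG with 0.6% NP-40 added for 2 h at room temperature; absorbance gives relative intracellular amastigote numbers. Benznidazole and nifurtimox serve as positive controls.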

[4] = tested on: L. donovani HU3 strain in mouse peritoneal macrophages; assay: Assay for inhibition of parasitemia of Leishmania donovani in mouse macrophages (SYBR Green nuclei count, high-content imaging); settings: Leishmania donovani, Peritoneal macrophage, L. donovani in mouse peritoneal macrophages; read-out: L. donovani in Mouse Macrophages EC50
Method in brief: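 Peritoneal macrophages from uninfected BALB/c mice were infected for 24 h with spleen-derived L. donovani HU3 (4×10^5 parasites per 2×10^4 macrophages), then cultured with compound for 5 days at 37° C, 5% CO2. After fixation and permeabilization, parasite nuclei were stained with SYBR Green and counted by high-content imaging.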

SMILES | EC50 [1] [nM] | EC50 ([2]; Trypanosoma brucei) [nM] | EC50 [3] [nM] | EC50 [4] [nM] | EC50 [2] [nM]
Cc1cn(-c2cnc3nn(-c4cc(NC(=O)N5CC(F)C5)ccc4F)cc3c2)cn1 [Compound 328, 3-fluoro-N-{4-fluoro-3-[5-(4-methyl-1H-imidazol-1-yl)-2H-pyrazolo[3,4-b]pyridin-2-yl]phenyl}azetidine-1-carboxamide] | 23 | 17 | 83 | 160 | 
N#CC1CN(c2cnc3nn(-c4cc(NC(=O)N5CC(F)C5)ccc4F)cc3c2)C1 [Compound 266, N-{3-[5-(3-cyanoazetidin-1-yl)-2H-pyrazolo[3,4-b]pyridin-2-yl]-4-fluorophenyl}-3-fluoroazetidine-1-carboxamide] | 8 | 5 | 65 | 29 | 
CN(C)c1cnc2nn(-c3cc(NC(=O)c4ccco4)ccc3F)cc2c1 [Compound 140, N-{3-[5-(dimethylamino)-2H-pyrazolo[3,4-b]pyridin-2-yl]-4-fluorophenyl}furan-2-carboxamide] | 100 | < 23 | 23 | 41 | 
O=C(Nc1ccc(F)c(-n2cc3cc(-c4ccccn4)cnc3n2)c1)N1CCC1 [Compound 99, N-{4-fluoro-3-[5-(pyridin-2-yl)-2H-pyrazolo[3,4-b]pyridin-2-yl]phenyl}azetidine-1-carboxamide] | 1.3 | > 50000 | 1 | 2 | 
CCCC(C)c1cnc2nn(-c3cc(NC(=O)N4CC(F)C4)ccc3F)cc2c1 (centres unmarked) [Compound 23, 3-fluoro-N-{4-fluoro-3-[5-(pentan-2-yl)-2H-pyrazolo[3,4-b]pyridin-2-yl]phenyl}azetidine-1-carboxamide] | 140 | < 23 | 78 | 110 | 
O=C(Nc1ccc(F)c(-n2cc3cc(C(F)(F)F)cnc3n2)c1)N1CC(F)(F)C1 [Compound 324, 3,3-difluoro-N-{4-fluoro-3-[5-(trifluoromethyl)-2H-pyrazolo[3,4-b]pyridin-2-yl]phenyl}azetidine-1-carboxamide] | 15 | 37 | 16 | 45 | 
O=C(Nc1ccc(F)c(-n2cc3cc(C4CCNCC4)cnc3n2)c1)N1CC(F)C1 [Compound 293, 3-fluoro-N-{4-fluoro-3-[5-(piperidin-4-yl)-2H-pyrazolo[3,4-b]pyridin-2-yl]phenyl}azetidine-1-carboxamide] | 6820 | 167 | 1210 | 17600 | 
O=C(Nc1ccc(F)c(-n2cc3cc(N4C[C@@H](F)[C@H](F)C4)cnc3n2)c1)N1CC(F)C1 [Compound 234, N-(3-{5-[(3R,4R)-3,4-difluoropyrrolidin-1-yl]-2H-pyrazolo[3,4-b]pyridin-2-yl]-4-fluorophenyl)-3-fluoroazetidine-1-carboxamide] | 27 |  | 9 | 3 | 5
CC(C)c1cnc2nn(-c3cc(NC(=O)C4CC4)ccc3F)cc2c1 [Compound 90, N-{4-fluoro-3-[5-(propan-2-yl)-2H-pyrazolo[3,4-b]pyridin-2-yl]phenyl}cyclopropanecarboxamide] | 280 | 77 | 140 | 310 | 
O=C(Nc1cccc(-n2cc3cc(-c4ccccn4)cnc3n2)c1)N1CCC1 [Compound 344, N-{3-[5-(pyridin-2-yl)-2H-pyrazolo[3,4-b]pyridin-2-yl]phenyl}azetidine-1-carboxamide] | 2 | 1 | 3 | 5 | 
O=C(Nc1ccc(F)c(-n2cc3cc(C4CC4)cnc3n2)c1)N1CC(F)(F)C1 [Compound 29, N-(3-{5-cyclopropyl-2H-pyrazolo[3,4-b]pyridin-2-yl}-4-fluorophenyl)-3,3-difluoroazetidine-1-carboxamide] | 8.2 | < 23 | 11 | 9.7 | 
CC1(C)C=C(C(=O)Nc2ccc(F)c(-n3cc4cc(-c5ccccn5)cnc4n3)c2)C1 [Compound 347, N-{4-fluoro-3-[5-(pyridin-2-yl)-2H-pyrazolo[3,4-b]pyridin-2-yl]phenyl}-3,3-dimethylcyclobut-1-ene-1-carboxamide] | 7 | 7 | 2 | 15 | 
CCC(C)(C)c1cnc2nn(-c3cc(NC(=O)N4CC[C@@H](F)C4)ccc3F)cc2c1 [Compound 49, (3R)-3-fluoro-N-{4-fluoro-3-[5-(2-methylbutan-2-yl)-2H-pyrazolo[3,4-b]pyridin-2-yl]phenyl}pyrrolidine-1-carboxamide] | 25000 | 3400 | 12000 | 12000 | 
CC(C)c1cnc2nn(-c3cc(NC(=O)c4ccccn4)ccc3F)cc2c1 [Compound 82, N-{4-fluoro-3-[5-(propan-2-yl)-2H-pyrazolo[3,4-b]pyridin-2-yl]phenyl}pyridine-2-carboxamide] | 470 | 54 | 59 | 310 | 
O=C(Nc1ccc(F)c(-n2cc3cc(N4CC(F)(F)C4)cnc3n2)c1)N1CC[C@@H](F)C1 [Compound 300, (3R)-N-{3-[5-(3,3-difluoroazetidin-1-yl)-2H-pyrazolo[3,4-b]pyridin-2-yl]-4-fluorophenyl}-3-fluoropyrrolidine-1-carboxamide] | 22 | 3 | 4 | 6 | 
O=C(Nc1ccc(F)c(-n2cc3cc(Cl)cnc3n2)c1)N1CC(F)C1 [Compound 276, N-(3-{5-chloro-2H-pyrazolo[3,4-b]pyridin-2-yl}-4-fluorophenyl)-3-fluoroazetidine-1-carboxamide] | 29 | 33 | 21 | 100 | 
CC(C)CCc1cnc2nn(-c3cc(NC(=O)N4CC[C@@H](F)C4)ccc3F)cc2c1 [Compound 52, (3R)-3-fluoro-N-{4-fluoro-3-[5-(3-methylbutyl)-2H-pyrazolo[3,4-b]pyridin-2-yl]phenyl}pyrrolidine-1-carboxamide] | 19 | < 23 | 13 | 11 | 
O=C(Nc1ccnc(-n2cc3cc(N4CC5(CC5)C4)cnc3n2)c1)N1CCC1 [Compound 282, N-[2-(5-{5-azaspiro[2.3]hexan-5-yl}-2H-pyrazolo[3,4-b]pyridin-2-yl)pyridin-4-yl}azetidine-1-carboxamide] | 34 | 27 | 40 | 70 | 
O=C(Nc1ccc(F)c(-n2cc3cc(N4CCC4)cnc3n2)c1)N1CC(F)(F)C1 [Compound 144, N-{3-[5-(azetidin-1-yl)-2H-pyrazolo[3,4-b]pyridin-2-yl]-4-fluorophenyl}-3,3-difluoroazetidine-1-carboxamide] | 23 | < 23 | 17 | 23 | 
O=C(Nc1ccc(F)c(-n2cc3cc(N4CC5(CSC5)C4)cnc3n2)c1)N1CC(F)C1 [Compound 239, 3-fluoro-N-[4-fluoro-3-(5-{2-thia-6-azaspiro[3.3]heptan-6-yl}-2H-pyrazolo[3,4-b]pyridin-2-yl)phenyl}azetidine-1-carboxamide] | 1760 | 5 | 10 | 9 | 
